Measurements as given in ChEMBL document CHEMBL3879905, “Methods of using macrocyclic modulators of the ghrelin receptor” (2013).
The source made the active and inactive calls. The rule behind the calls is not given here.

What was measured:
[1] = species on record: Homo sapiens; experiment: Selectivity for human GSHR1a over human motilin receptor
[2] = system: Rattus norvegicus; experiment: Induction of gastric emptying of solid meal in Wistar rat gastroparesis model at 5 to 50 ug/kg, iv administered immediately post methylcellulose meal containing phenol red intake measured after 15 mins by colorimetric method; type: functional, organism-based; conditions: Stomach
[3] = system: Rattus norvegicus; experiment: Effect on pulsatile growth hormone release in plasma of free moving Sprague-Dawley rat at 5 ug/kg, iv administered at 1100 and 1300 […] during 6 hrs of sampling period measured every 15 mins over 6 hrs of sampling period by radioimmunoassay relative to vehicle-treated control; type: functional, organism-based
[4] = system: Rattus norvegicus; experiment: Induction of gastric emptying of solid meal in Wistar rat gastroparesis model at 20 ug/kg, iv administered immediately post phenol red containing methylcellulose meal intake measured after 15 mins by colorimetric method relative to vehicle-treated control; type: functional, Stomach
[5] = system: Rattus norvegicus; experiment: Gastrokinetic activity in Wistar rat gastroparesis model at 20 ug/kg, iv administered immediately post phenol red containing methylcellulose meal intake measured after 15 mins by colorimetric method relative to vehicle-treated control; type: functional, organism-based
[6] = system: Rattus norvegicus; experiment: Induction of gastric emptying of high caloric meal in Wistar rat gastroparesis model at 0.08 to […] mg/kg, iv after 60 mins; type: functional, organism-based; conditions: Stomach
[7] = system: Rattus norvegicus; experiment: Gastrokinetic activity in Wistar rat gastroparesis model at 100 ug/kg, iv administered immediately post phenol red containing methylcellulose meal intake measured after 15 mins by colorimetric method relative to vehicle-treated control; type: functional, organism-based
[8] = system: Rattus norvegicus; experiment: Induction of gastric emptying of solid meal in Wistar rat gastroparesis model at 100 ug/kg, iv administered immediately post phenol red containing methylcellulose meal intake measured after 15 mins by colorimetric method relative to vehicle-treated control; type: functional, Stomach
[9] = system: Rattus norvegicus; experiment: Induction of gastric emptying of solid meal in Wistar rat gastroparesis model at 30 ug/kg, iv administered immediately post methylcellulose meal containing phenol red intake measured after 15 mins by colorimetric method relative to vehicle-treated control; type: functional, organism-based; conditions: Stomach
[10] = system: Rattus norvegicus; experiment: Induction of gastric emptying of solid meal in iv dosed Wistar rat gastroparesis model administered immediately post methylcellulose meal containing phenol red intake measured after 15 mins by colorimetric method; type: functional, organism-based; conditions: Stomach
[11] = system: Rattus norvegicus; experiment: Reversal of morphine-induced intestinal transit delaying in iv dosed Sprague-Dawley rat postoperative ileus model at 100 ug/kg, iv administered prior to 99mTC labeled methylcellulose meal intake measured after 15 mins by gamma counting method; type: functional, organism-based
[12] = system: Rattus norvegicus; experiment: Induction of gastric emptying of solid meal in Sprague-Dawley rat postoperative ileus model at 100 to 300 ug/kg, iv administered prior to 99mTC labeled methylcellulose meal intake measured after 15 mins by gamma counting method relative to vehicle-treated control; type: functional, organism-based; conditions: Stomach
[13] = target: Growth hormone secretagogue receptor type 1 (Homo sapiens, UniProt Q92847); experiment: Displacement of [125I]-Ghrelin from human GSHR1a transfected in HEK293 cell membranes after 30 mins by microplate scintillation and luminescence counting method
Growth hormone secretagogue receptor type 1, sequence (Q92847 whole entry): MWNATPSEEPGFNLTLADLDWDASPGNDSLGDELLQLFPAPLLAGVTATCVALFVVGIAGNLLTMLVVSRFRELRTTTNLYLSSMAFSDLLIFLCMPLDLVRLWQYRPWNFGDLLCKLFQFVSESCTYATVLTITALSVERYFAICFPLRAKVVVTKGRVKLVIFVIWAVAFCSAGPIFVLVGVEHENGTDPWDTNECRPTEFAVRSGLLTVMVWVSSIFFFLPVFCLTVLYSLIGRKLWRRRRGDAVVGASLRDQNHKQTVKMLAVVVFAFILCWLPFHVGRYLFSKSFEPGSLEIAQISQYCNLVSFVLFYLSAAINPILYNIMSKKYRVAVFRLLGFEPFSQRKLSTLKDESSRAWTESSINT

| Selectivity ratio [1] | SMILES | further results |
| --- | --- | --- |
| 300 | CC[C@H](C)[C@@H]1NC[C@H](C)Oc2ccccc2CCCNC(=O)[C@H](Cc2cccc(Cl)c2)NC(=O)C2(CCCC2)NC1=O | – |
| 4900 | CC[C@H](C)[C@@H]1NCCOc2ccccc2CCCNC(=O)[C@@H](Cc2ccc3ccccc3c2)NC(=O)[C@@H](C)N(C)C1=O | – |
| > 7100 | CC[C@H](C)[C@@H]1NCCOc2ccccc2CCCNC(=O)[C@@H](Cc2ccc(OC)cc2)NC(=O)[C@@H](C)N(C)C1=O | – |
| 714 | C[C@@H]1C(=O)N[C@H](Cc2ccc(F)cc2)C(=O)NCCCc2ncccc2OCCN[C@@H](C2CC2)C(=O)N1C | – |
| 250 | C[C@@H]1C(=O)N[C@H](Cc2ccc(F)cc2)C(=O)NCCCc2cc(NS(C)(=O)=O)ccc2OCCN[C@@H](C2CC2)C(=O)N1C | – |
| 2500 | C[C@@H]1C(=O)N[C@H](Cc2ccccc2)C(=O)NCCCc2ccccc2OCCN[C@@H](C2CC2)C(=O)N1C | – |
| – | CCCCCCCC(=O)OC[C@H](NC(=O)[C@H](CO)NC(=O)CN)C(=O)N[C@@H](Cc1ccccc1)C(=O)N[C@@H](CC(C)C)C(=O)N[C@@H](CO)C(=O)N1CCC[C@H]1C(=O)N[C@@H](CCC(=O)O)C(=O)N[C@@H](Cc1cnc[nH]1)C(=O)N[C@@H](CCC(N)=O)C(=O)N[C@@H](CCCNC(=N)N)C(=O)N[C@H](C(=O)N[C@@H](CCC(N)=O)C(=O)N[C@@H](CCC(N)=O)C(=O)N[C@@H](CCCNC(=N)N)C(=O)N[C@@H](CCCCN)C(=O)N[C@@H](CCC(=O)O)C(=O)N[C@@H](CO)C(=O)N[C@@H](CCCCN)C(=O)N[C@@H](CCCCN)C(=O)N1CCC[C@H]1C(=O)N1CCC[C@H]1C(=O)N[C@@H](C)C(=O)N[C@@H](CCCCN)C(=O)N[C@@H](CC(C)C)C(=O)N[C@@H](CCC(N)=O)C(=O)N1CCC[C@H]1C(=O)N[C@@H](CCCNC(=N)N)C(=O)O)C(C)C | Activity [2]: Active; Activity [3]: Active |
| 1700 | CC1COc2ccccc2CCCNC(=O)[C@@H](Cc2ccc(F)cc2)NC(=O)[C@@H](C)N(C)C(=O)[C@H](C2CC2)N1 (some centres undefined) | – |
| 3010 | CCC[C@@H]1NCCOc2ccccc2CCCNC(=O)[C@@H](Cc2ccccc2)NC(=O)[C@H](C)N(C)C1=O | – |
| > 1700 | CC(C)[C@@H]1NCCOc2ccccc2/C=C\CNC(=O)[C@H](Cc2ccccc2)NC(=O)[C@@H](C)N(C)C1=O | – |
| > 5500 | C[C@@H]1C(=O)N[C@H](Cc2ccc(Cl)cc2Cl)C(=O)NCCCc2ccccc2OCCN[C@@H](C2CC2)C(=O)N1C | – |
| – | C[C@H](NC(=O)[C@@H](Cc1c[nH]c2ccccc12)NC(=O)[C@@H](N)Cc1cnc[nH]1)C(=O)N[C@H](Cc1c[nH]c2ccccc12)C(=O)N[C@@H](Cc1ccccc1)C(=O)N[C@@H](CCCCN)C(N)=O | Activity [4]: 40%; Activity [5]: Active |
| 222 | O=C1NC/C=C/c2ccccc2OCCNC2(CCCC2)C(=O)NC2(CCCC2)C(=O)N[C@H]1Cc1ccccc1 | – |
| – | C[C@@H]1C(=O)N[C@H](Cc2ccc(Cl)cc2)C(=O)NCCCc2ccccc2OCCN[C@@H](C2CC2)C(=O)N1C | Activity [6]: Active |
| 35 | CC[C@H](C)[C@@H]1NCCCCCCCCNC(=O)[C@H](Cc2cccc(Cl)c2)NC(=O)C2(CCCC2)NC1=O | – |
| 74 | CC[C@H](C)[C@@H]1NCCOc2ccc(F)cc2CCCNC(=O)[C@H](Cc2cccc(Cl)c2)NC(=O)C2(CCCC2)NC1=O | – |
| 4300 | C[C@@H]1C(=O)N[C@H](Cc2ccccc2)C(=O)NCCCc2ccccc2OCCN[C@@H](C(C)(C)C)C(=O)N1C | – |
| > 7700 | CC[C@H](C)[C@@H]1NCCOc2ccccc2CCCNC(=O)[C@@H](Cc2ccc(F)cc2)NC(=O)[C@@H](C)N(C)C1=O | – |
| 2500 | C[C@@H]1C(=O)N[C@H](Cc2ccc(F)cc2)C(=O)NCCCc2ccc(F)cc2OCCN[C@@H](C2CC2)C(=O)N1C | Activity [6]: Active |
| – | C[C@@H]1CN[C@@H](C2CC2)C(=O)N(C)[C@H](C)C(=O)N[C@H](Cc2ccc(Cl)cc2)C(=O)NCCCc2ccccc2O1 | Activity [6]: Active |
| 200 | CC(C)C[C@@H]1NCCOc2ccccc2/C=C\CNC(=O)[C@H](Cc2ccccc2)NC(=O)C2(CCCC2)NC1=O | – |
| – | C[C@@H]1CN[C@@H](C2CC2)C(=O)N(C)[C@H](C)C(=O)N[C@H](Cc2ccc(F)cc2)C(=O)NCCCc2ccc(F)cc2O1 | Activity [6]: Active |
| 3400 | CCC[C@@H]1NCCOc2ccccc2/C=C\CNC(=O)[C@@H](Cc2ccccc2)NC(=O)[C@@H](C)N(C)C1=O | – |
| 450 | C[C@H]1NC(=O)C2(CCCC2)NCCOc2ccccc2/C=C\CNC(=O)[C@H](Cc2cccc(Cl)c2)NC1=O | – |

| Selectivity ratio [1] | SMILES | further results |
| --- | --- | --- |
| > 3300 | CC[C@H](C)[C@@H]1NCCOc2ccccc2/C=C\CNC(=O)[C@@H](Cc2ccccc2)NC(=O)[C@@H](C)N(C)C1=O | – |
| > 800 | CC[C@H](C)[C@@H]1NCCCc2ccccc2/C=C\CNC(=O)[C@@H](Cc2ccccc2)NC(=O)[C@@H](C)N(C)C1=O | – |
| 100 | CC[C@H](C)[C@@H]1NCCOc2ccc(C(=O)O)cc2CCCNC(=O)[C@@H](Cc2ccccc2)NC(=O)[C@@H](C)N(C)C1=O | – |
| 1040 | CC(C)C[C@@H]1NCCOc2ccccc2/C=C\CNC(=O)[C@H](Cc2ccccc2Cl)NC(=O)C2(CCCC2)NC1=O | – |
| 3700 | CC[C@H](C)[C@@H]1NCCOc2ccccc2CCCNC(=O)[C@@H](Cc2ccccc2)NC(=O)[C@@H](C)N(CC)C1=O | – |
| > 1000 | CC[C@H](C)[C@@H]1NCCOc2ccccc2CCCNC(=O)[C@@H](Cc2cccs2)NC(=O)[C@@H](C)N(C)C1=O | – |
| 28000 | CC[C@H](C)[C@@H]1NCCOc2ccccc2CCCNC(=O)[C@@H](Cc2ccc(Cl)cc2)NC(=O)[C@@H](C)N(C)C1=O | Activity [7]: Active; Activity [6]: Active; Activity [8]: 30 - 39%; Activity [9]: Active |
| 117 | CC(C)[C@@H]1NCCOc2ccccc2CCCNC(=O)[C@H](Cc2ccccc2)NC(=O)C2(CCCC2)NC1=O | – |
| 3040 | CC[C@H](C)[C@@H]1NCCOc2ccccc2CCCNC(=O)[C@@H](Cc2cccc(Cl)c2)NC(=O)[C@@H](C)N(C)C1=O | – |
| > 1700 | CC(C)C1NCCOc2ccccc2/C=C\CNC(=O)C(Cc2ccccc2)NC(=O)C(C)N(C)C1=O (centres undefined) | – |
| 142 | CCCC[C@@H]1NCCOc2ccccc2CCCNC(=O)[C@@H](Cc2ccccc2)NC(=O)CN(C)C1=O | – |
| 30000 | CC[C@H](C)[C@@H]1NCCOc2ccccc2CCCNC(=O)[C@@H](Cc2ccccc2Cl)NC(=O)[C@@H](C)N(C)C1=O | – |
| 28 | CC[C@H](C)[C@@H]1NCCCCCCCCNC(=O)[C@@H](Cc2ccccc2)NC(=O)[C@@H](C)N(C)C1=O | – |
| – | C[C@@H]1C(=O)N[C@H](Cc2ccccc2)C(=O)NCCCc2ccc3c(c2)OC(CC3)CN[C@@H](C2CC2)C(=O)N1C (some centres undefined) | Activity [6]: Active |
| 346 | CC1(C)NC(=O)C2(CCCC2)NCCOc2ccccc2/C=C\CNC(=O)[C@H](Cc2cccc(Cl)c2)NC1=O | – |
| 13000 | CC[C@H](C)[C@@H]1NCCOc2ccccc2CCCNC(=O)[C@@H](Cc2cccc3ccccc23)NC(=O)[C@@H](C)N(C)C1=O | – |
| > 100 | CC[C@H](C)[C@@H]1NCCOc2ccccc2CCCNC(=O)[C@@H](Cc2ccccc2)NC(=O)[C@@H](C)N(C)C1=O | – |
| – | C[C@@H]1CN[C@@H](C2CC2)C(=O)N(C)[C@H](C)C(=O)N[C@H](Cc2ccc(F)cc2)C(=O)NCCCc2ccccc2O1 | Activity [7]: Active; Activity [10]: Dose-dependent effect; Activity [6]: Active; Activity [11]: Dose-dependent effect; Activity [12]: Active; %max [13]: 96% |
| 71 | CCC[C@@H]1NCCOc2ccccc2CCCNC(=O)[C@@H](Cc2c[nH]c3ccccc23)NC(=O)CN(C)C1=O | – |
| 400 | CCC(C)[C@H]1NCCOc2ccccc2[C@H]2C[C@@H]2CNC(=O)[C@H](Cc2cccc(Cl)c2)NC(=O)C2(CCCC2)NC1=O (some centres undefined) | – |
| 1080 | CC(C)C[C@@H]1NCCOc2ccccc2/C=C\CNC(=O)[C@H](Cc2cccc(Cl)c2)NC(=O)C2(CCCC2)NC1=O | Activity [6]: Active |
| 450 | C[C@H]1C(=O)N[C@@H](Cc2ccc(F)cc2)C(=O)NC[C@H]2C[C@@H]2c2ccccc2OCCN[C@H](C2CC2)C(=O)N1C | – |
| – | C[C@@H]1CN[C@@H](C2CC2)C(=O)N(C)[C@H](C)C(=O)N[C@H](Cc2ccc(Cl)cc2)C(=O)NCCCc2ccc(F)cc2O1 | Activity [6]: Active |
| > 159 | CC[C@H](C)[C@@H]1NCCOc2ccccc2/C=C\CNC(=O)[C@H](Cc2ccc(Cl)cc2)NC(=O)C2(CCOC2)NC1=O (some centres undefined) | – |

| SMILES | Selectivity ratio [1] | further results |
| --- | --- | --- |
| CCC[C@@H]1NCCOc2ccccc2CCCNC(=O)[C@@H](Cc2ccccc2)NC(=O)CN(C)C1=O | 304 | – |
| CCC[C@@H]1NCCOc2ccccc2CCCNC(=O)[C@@H](Cc2ccc(O)cc2)NC(=O)CN(C)C1=O | > 100 | – |
| C[C@@H]1C(=O)N[C@H](Cc2ccc(O)c(C(C)(C)C)c2)C(=O)NCCCc2ccccc2OCCN[C@@H](C2CC2)C(=O)N1C | 21 | – |
